From ChEMBL document CHEMBL3992542, “Synthesis of cholesteryl doxorubicin and its anti-cancer activity” (Bioorg Med Chem Lett, 2017)
The source made the active and inactive calls. No cut-off for these calls is given here.

Columns and labels:
A549 [1] = assay: Cytotoxicity against human A549 cells assessed as decrease in cell viability at 10 uM treated for 2 hrs measured after 48 hrs by MTT assay; type: functional, cell-based
MDA-MB-231 [2] = assay: Cytotoxicity against human MDA-MB-231 cells assessed as decrease in cell viability at 10 uM treated for 2 hrs measured after 48 hrs by MTT assay; type: functional, cell-based
HeLa [3] = assay: Cytotoxicity against human HeLa cells assessed as decrease in cell viability at 5 uM treated for 2 hrs measured after 48 hrs by MTT assay; type: functional, cell-based
MCF7 [4] = assay: Cytotoxicity against human MCF7 cells assessed as decrease in cell viability at 5 uM treated for 2 hrs measured after 48 hrs by MTT assay; type: functional, cell-based
[5] = Drug uptake in cytoplasm of human MDA-MB-231 cells at 5 uM after 2 hrs by fluorescence microscopic method; type: ADME
[6] = Drug uptake in cytoplasm of human HeLa cells at 5 uM after 2 hrs by fluorescence microscopic method; type: ADME, cell-based
[7] = Drug uptake in nucleus of human A549 cells at 5 uM after 24 hrs by fluorescence microscopic method; type: ADME, cell-based; conditions: a549, 24 h
[8] = Drug uptake in cytoplasm of human A549 cells at 5 uM after 2 hrs by fluorescence microscopic method; type: ADME, cell-based; conditions: a549, 2 h
A549 [9] = assay: Cytotoxicity against human A549 cells assessed as decrease in cell viability treated for 2 hrs measured after 48 hrs by MTT assay; type: functional, cell-based
MCF7 [10] = assay: Cytotoxicity against human MCF7 cells assessed as decrease in cell viability treated for 2 hrs measured after 48 hrs by MTT assay; type: functional, cell-based
[11] = Drug uptake in nucleus of human MDA-MB-231 cells at 5 uM after 24 hrs by fluorescence microscopic method; type: ADME
[12] = Drug uptake in human HeLa cells at 5 uM after 24 hrs by flow cytometric analysis; type: ADME, cell-based
[13] = Drug uptake in nucleus of human HeLa cells at 5 uM after 24 hrs by fluorescence microscopic method; type: ADME, cell-based
MDA-MB-231 [14] = assay: Cytotoxicity against human MDA-MB-231 cells assessed as decrease in cell viability treated for 2 hrs measured after 48 hrs by MTT assay; type: functional, cell-based
[15] = Drug uptake in human MDA-MB-231 cells at 5 uM after 24 hrs by flow cytometric analysis; type: ADME, cell-based; conditions: mda-mb-231, 24 h
HeLa [16] = assay: Cytotoxicity against human HeLa cells assessed as decrease in cell viability treated for 2 hrs measured after 48 hrs by MTT assay; type: functional, cell-based
[17] = Drug uptake in nucleus of human MDA-MB-231 cells at 5 uM after 2 hrs by fluorescence microscopic method; type: ADME
[18] = Drug uptake in nucleus of human A549 cells at 5 uM after 2 hrs by fluorescence microscopic method; type: ADME, cell-based; conditions: a549, 2 h
[19] = Drug uptake in human HeLa cells at 5 uM after 2 hrs by flow cytometric analysis; type: ADME, cell-based
[20] = Drug uptake in human MDA-MB-231 cells at 5 uM after 2 hrs by flow cytometric analysis; type: ADME, cell-based; conditions: mda-mb-231, 2 h
[21] = Drug uptake in nucleus of human HeLa cells at 5 uM after 2 hrs by fluorescence microscopic method; type: ADME, cell-based

| SMILES | Drug uptake [7] | Drug uptake [11] | Drug uptake [12] | Drug uptake [13] | Drug uptake [15] | Activity (A549 [1]) | Activity (MDA-MB-231 [2]) | Activity (HeLa [3]) | Activity (MCF7 [4]) | IC50 (A549 [9]) [µM] | IC50 (MCF7 [10]) [µM] | IC50 (MDA-MB-231 [14]) [µM] | IC50 (HeLa [16]) [µM] | further results |
| --- | --- | --- | --- | --- | --- | --- | --- | --- | --- | --- | --- | --- | --- | --- |
| COc1cccc2c1C(=O)c1c(O)c3c(c(O)c1C2=O)C[C@@](O)(C(=O)CO)C[C@@H]3O[C@H]1C[C@H](NC(=O)CCC(=O)NCCCO[C@H]2CC[C@@]3(C)C(=CC[C@H]4[C@@H]5CC[C@H]([C@H](C)CCCC(C)C)[C@@]5(C)CC[C@@H]43)C2)[C@H](O)[C@H](C)O1 | – | – | – | – | – | inactive | inactive | inactive | inactive | – | – | – | – | – |
| COc1cccc2c1C(=O)c1c(O)c3c(c(O)c1C2=O)C[C@@](O)(C(=O)CO)C[C@@H]3O[C@H]1C[C@H](NC(=O)CCC(=O)NCCCNC(=O)O[C@H]2CC[C@@]3(C)C(=CC[C@H]4[C@@H]5CC[C@H]([C@H](C)CCCC(C)C)[C@@]5(C)CC[C@@H]43)C2)[C@H](O)[C@H](C)O1 | – | – | – | – | – | inactive | inactive | inactive | inactive | – | – | – | – | – |

Continued, in another order:

| Drug uptake [7] | Drug uptake [11] | Drug uptake [12] | Drug uptake [13] | Drug uptake [15] | SMILES | Activity (A549 [1]) | Activity (MDA-MB-231 [2]) | Activity (HeLa [3]) | Activity (MCF7 [4]) | IC50 (A549 [9]) [µM] | IC50 (MCF7 [10]) [µM] | IC50 (MDA-MB-231 [14]) [µM] | IC50 (HeLa [16]) [µM] | further results |
| --- | --- | --- | --- | --- | --- | --- | --- | --- | --- | --- | --- | --- | --- | --- |
| Active | Active | Active | Active | Active | COc1cccc2c1C(=O)c1c(O)c3c(c(O)c1C2=O)C[C@@](O)(C(=O)COC(=O)CCC(=O)NCCCO[C@H]1CC[C@@]2(C)C(=CC[C@H]4[C@@H]5CC[C@H]([C@H](C)CCCC(C)C)[C@@]5(C)CC[C@@H]42)C1)C[C@@H]3O[C@H]1C[C@H](N)[C@H](O)[C@H](C)O1 | Active | Active | Active | Active | 11.2 | 9.94 | 21.6 | 27.9 | Drug uptake [5]: Active; Drug uptake [6]: Active; Drug uptake [8]: Active |
| Not Active | Not Active | Not Active | Not Active | Not Active | COc1cccc2c1C(=O)c1c(O)c3c(c(O)c1C2=O)C[C@@](O)(C(=O)CO)C[C@@H]3O[C@H]1C[C@H](N)[C@H](O)[C@H](C)O1 [DOXORUBICIN] | – | – | – | – | 11.6 | 4.39 | 14.7 | 7.18 | Drug uptake [17]: Active; Drug uptake [18]: Active; Drug uptake [19]: Active; Drug uptake [20]: Active; Drug uptake [21]: Active |
| – | – | Not Active | – | Not Active | COc1cccc2c1C(=O)c1c(O)c3c(c(O)c1C2=O)C[C@@](O)(C(=O)COC(=O)CCC(=O)NCCCNC(=O)O[C@H]1CC[C@@]2(C)C(=CC[C@H]4[C@@H]5CC[C@H]([C@H](C)CCCC(C)C)[C@@]5(C)CC[C@@H]42)C1)C[C@@H]3O[C@H]1C[C@H](N)[C@H](O)[C@H](C)O1 | Active | Active | Active | Active | 8.03 | 9.69 | 16.4 | 8.03 | – |
